In article PMC6271500, “Bowman-Birk Protease Inhibitor from Vigna unguiculata Seeds Enhances the Action of Bradykinin-Related Peptides” (Molecules, 2014):

Assay: Cardiovascular effects of infusion of Bk and Bk-related peptides with BTCI or vehicle in anesthetized rats
Type: in vivo, male Wistar rats
Details: for aortic vasodilation (change in AVC) / change in mean arterial pressure (MAP) / renal vasodilation (change in RVC): from the baseline value, mean ± SEM, 6 experiments
Method: All experiments were conducted on adult male Wistar rats (280–350 g). They were obtained from the central animal house of the Federal University of Goiás. Experimental procedures were designed with strict adherence to the National Health Institute Guidelines for Care and Use of Laboratory Animals as approved by the Ethics Committee, Federal University of Goiás (034/12).
On the day of experiments, the rats were anesthetized with halothane (2%–3% in 100% O2; Cristália Ltda, Itapira, SP, Brazil) prior to the catheterization of the right femoral vein and artery. After the catheter placement, the rats were removed from the halothane and the anesthesia was maintained with urethane (1.2 g·kg^−1 b.wt., i.v.; Sigma-Aldrich Co.). The trachea was cannulated to reduce airway resistance. The body temperature was kept at 37 ± 0.5 °C with a thermostatically controlled heated table.
Renal blood flow (RBF) and aortic blood flow (ABF) were measured with an ultrasonic transit-time flowmeter (Transonic Systems, Inc., Ithaca, NY, USA). Data were recorded continuously with an analog-to-digital converter (PowerLab 4/25, ML845, AD Instruments, Bella Vista, Australia). Mean arterial pressure (MAP) was determined from the pulsatile signal. Aortic vascular conductance (AVC) and renal vascular conductance (RVC) were calculated by a ratio of ABF and RBF divided by MAP, and were expressed as percentage of baseline. Increasing doses of BTCI (0.3, 3, 30 and 300 µg·kg^−1, i.v.) were infused.
Results are presented as means ± S.E.M. The effects of infusion of Bk, Bk-related peptides and BTCI on cardiovascular parameters were analyzed by one-way ANOVA. […] A value of Student’s t-test p < 0.05 was considered to denote a significant difference.

[1] = peptide 120 µg·kg^−1 + BTCI 3 µg·kg^−1, i.v.
[2] = peptide 120 µg·kg^−1 i.v. + BTCI 3 µg·kg^−1 i.v.
[3] = peptide 120 µg·kg^−1 i.v., without BTCI

[Val]^1[Thr]^6-bradykinyl-Gln-Ser [Bk2]
effect of association with BTCI on aortic vasodilation [1]: potentiated | effect of association with BTCI on renal vasodilation [1]: potentiated renal | aortic vasodilation (change in AVC) [2]: 28% ± 2.6% | change in mean arterial pressure (MAP) [2]: −12 ± 2.7 mmHg | renal vasodilation (change in RVC) [2]: 29% ± 4.9% | aortic vasodilation (change in AVC) [3]: 19% ± 2.7% | change in mean arterial pressure (MAP) [3]: −12 ± 1.2 mmHg | renal vasodilation (change in RVC) [3]: 19% ± 3.0%
